In PMC4457528, “Identification of Novel Small Molecule Inhibitors of Oncogenic RET Kinase” (PLoS ONE, 2015):
Like-named read-outs stand apart in the source and are kept apart here.

Columns and labels:
Experiment in all cases: KinomeScan kinase panel, single concentration 10 µM
Format in all cases: binding
KinomeScan kinase panel [1] = biological target: T1, KinomeScan kinase panel (Homo sapiens, UniProt P42345); settings: MTOR, 10 µM; read-out: score (%)
T1 construct: purchased DiscoveRx (KinomeScan)

KinomeScan kinase panel [2] = biological target: T2, KinomeScan kinase panel (Homo sapiens, UniProt P48729); settings: CSNK1A1, 10 µM; read-out: score (%)
T2 construct: purchased DiscoveRx (KinomeScan)

KinomeScan kinase panel [3] = biological target: T3, KinomeScan kinase panel (Homo sapiens, UniProt P00533, T790M); settings: EGFR(T790M), 10 µM
T3 construct: purchased DiscoveRx (KinomeScan)

KinomeScan kinase panel [4] = biological target: T4, KinomeScan kinase panel (Homo sapiens, UniProt Q8WU08); settings: kinase YANK1; 10 µM; read-out: score (%)
T4 construct: purchased DiscoveRx (KinomeScan)

KinomeScan kinase panel [5] = biological target: T5, KinomeScan kinase panel (Homo sapiens, UniProt P42336, I800L); settings: PIK3CA(I800L), 10 µM; read-out: score (%)
T5 construct: purchased DiscoveRx (KinomeScan)

KinomeScan kinase panel [6] = biological target: T6, KinomeScan kinase panel (Homo sapiens, UniProt P23443); settings: kinase S6K1; 10 µM; read-out: score (%)
T6 construct: purchased DiscoveRx (KinomeScan)

KinomeScan kinase panel [7] = biological target: T7, KinomeScan kinase panel (Homo sapiens, UniProt Q9NWZ3); settings: IRAK4, 10 µM
T7 construct: purchased DiscoveRx (KinomeScan)

KinomeScan kinase panel [8] = biological target: T8, KinomeScan kinase panel (Homo sapiens, UniProt P51957); settings: NEK4, 10 µM; read-out: score (%)
T8 construct: purchased DiscoveRx (KinomeScan)

KinomeScan kinase panel [9] = biological target: T9, KinomeScan kinase panel (Homo sapiens, UniProt Q9BX84); settings: kinase TRPM6; 10 µM; read-out: score (%)
T9 construct: purchased DiscoveRx (KinomeScan)

KinomeScan kinase panel [10] = biological target: T10, KinomeScan kinase panel (Homo sapiens, UniProt Q96BR1); settings: kinase SGK3; 10 µM; read-out: score (%)
T10 construct: purchased DiscoveRx (KinomeScan)

KinomeScan kinase panel [11] = biological target: T11, KinomeScan kinase panel (Homo sapiens, UniProt O14733); settings: MKK7, 10 µM
T11 construct: purchased DiscoveRx (KinomeScan)

KinomeScan kinase panel [12] = biological target: T12, KinomeScan kinase panel (Homo sapiens, UniProt Q9UL54); settings: kinase TAOK2; 10 µM; read-out: score (%)
T12 construct: purchased DiscoveRx (KinomeScan)

KinomeScan kinase panel [13] = biological target: T13, KinomeScan kinase panel (Plasmodium falciparum, UniProt P61075); settings: PFPK5(P.falciparum), 10 µM; read-out: score (%)
T13 construct: purchased DiscoveRx (KinomeScan)

KinomeScan kinase panel [14] = biological target: T14, KinomeScan kinase panel (Homo sapiens, UniProt P41743); settings: kinase PRKCI; 10 µM; read-out: score (%)
T14 construct: purchased DiscoveRx (KinomeScan)

KinomeScan kinase panel [15] = biological target: T15, KinomeScan kinase panel (Homo sapiens, UniProt O14936); settings: CASK, 10 µM; read-out: score (%)
T15 construct: purchased DiscoveRx (KinomeScan)

KinomeScan kinase panel [16] = biological target: T16, KinomeScan kinase panel (Homo sapiens, UniProt P10721, D816H); settings: KIT(D816H), 10 µM; read-out: score (%)
T16 construct: purchased DiscoveRx (KinomeScan)

KinomeScan kinase panel [17] = biological target: T17, KinomeScan kinase panel (Homo sapiens, UniProt Q5S007); settings: LRRK2, 10 µM; read-out: score (%)
T17 construct: purchased DiscoveRx (KinomeScan)

KinomeScan kinase panel [18] = biological target: T18, KinomeScan kinase panel (Homo sapiens, UniProt Q9BQI3); settings: EIF2AK1, 10 µM; read-out: score (%)
T18 construct: purchased DiscoveRx (KinomeScan)

KinomeScan kinase panel [19] = biological target: T19, KinomeScan kinase panel (Homo sapiens, UniProt Q9NRH2); settings: kinase SNRK; 10 µM; read-out: score (%)
T19 construct: purchased DiscoveRx (KinomeScan)

KinomeScan kinase panel [20] = biological target: T20, KinomeScan kinase panel (Homo sapiens, UniProt Q00532); settings: CDKL1, 10 µM; read-out: score (%)
T20 construct: purchased DiscoveRx (KinomeScan)

KinomeScan kinase panel [21] = biological target: T21, KinomeScan kinase panel (Homo sapiens, UniProt Q14004); settings: CDC2L5, 10 µM
T21 construct: purchased DiscoveRx (KinomeScan)

KinomeScan kinase panel [22] = biological target: T22, KinomeScan kinase panel (Homo sapiens, UniProt Q13163); settings: MEK5, 10 µM; read-out: score (%)
T22 construct: purchased DiscoveRx (KinomeScan)

KinomeScan kinase panel [23] = biological target: T23, KinomeScan kinase panel (Homo sapiens, UniProt Q5S007, G2019S); settings: LRRK2(G2019S), 10 µM; read-out: score (%)
T23 construct: purchased DiscoveRx (KinomeScan)

KinomeScan kinase panel [24] = biological target: T24, KinomeScan kinase panel (Homo sapiens, UniProt P36888, R834Q); settings: FLT3(R834Q), 10 µM; read-out: score (%)
T24 construct: purchased DiscoveRx (KinomeScan)

KinomeScan kinase panel [25] = biological target: T25, KinomeScan kinase panel (Homo sapiens, UniProt Q8NG66); settings: NEK11, 10 µM; read-out: score (%)
T25 construct: purchased DiscoveRx (KinomeScan)

KinomeScan kinase panel [26] = biological target: T26, KinomeScan kinase panel (Homo sapiens, UniProt Q8TBX8); settings: PIP5K2C, 10 µM; read-out: score (%)
T26 construct: purchased DiscoveRx (KinomeScan)

KinomeScan kinase panel [27] = biological target: T27, KinomeScan kinase panel (Homo sapiens, UniProt Q6XUX3); settings: kinase RIPK5; 10 µM; read-out: score (%)
T27 construct: purchased DiscoveRx (KinomeScan)

KinomeScan kinase panel [28] = biological target: T28, KinomeScan kinase panel (Homo sapiens, UniProt Q86Y07); settings: kinase VRK2; 10 µM; read-out: score (%)
T28 construct: purchased DiscoveRx (KinomeScan)

KinomeScan kinase panel [29] = biological target: T29, KinomeScan kinase panel (Mycobacterium tuberculosis, UniProt P9WI81); settings: PKNB(M.tuberculosis), 10 µM; read-out: score (%)
T29 construct: purchased DiscoveRx (KinomeScan)

KinomeScan kinase panel [30] = biological target: T30, KinomeScan kinase panel (Homo sapiens, UniProt P51956); settings: NEK3, 10 µM; read-out: score (%)
T30 construct: purchased DiscoveRx (KinomeScan)

KinomeScan kinase panel [31] = biological target: T31, KinomeScan kinase panel (Plasmodium falciparum, UniProt P62344); settings: PFCDPK1(P.falciparum), 10 µM; read-out: score (%)
T31 construct: purchased DiscoveRx (KinomeScan)

KinomeScan kinase panel [32] = biological target: T32, KinomeScan kinase panel (Homo sapiens, UniProt P10721, A829P); settings: KIT(A829P), 10 µM; read-out: score (%)
T32 construct: purchased DiscoveRx (KinomeScan)

KinomeScan kinase panel [33] = biological target: T33, KinomeScan kinase panel (Homo sapiens, UniProt P11802); settings: read-out: score (%)
T33 construct: purchased DiscoveRx (KinomeScan)
T33 sequence (P11802 whole entry): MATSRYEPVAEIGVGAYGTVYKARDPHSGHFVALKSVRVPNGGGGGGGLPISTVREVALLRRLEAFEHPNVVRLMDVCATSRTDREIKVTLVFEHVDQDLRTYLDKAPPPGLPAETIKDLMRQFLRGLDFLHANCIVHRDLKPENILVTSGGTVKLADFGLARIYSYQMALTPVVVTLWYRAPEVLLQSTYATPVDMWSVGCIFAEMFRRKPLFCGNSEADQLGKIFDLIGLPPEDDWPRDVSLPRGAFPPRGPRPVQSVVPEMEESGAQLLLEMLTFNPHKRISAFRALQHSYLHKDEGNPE

T27 sequence (Q6XUX3 whole entry): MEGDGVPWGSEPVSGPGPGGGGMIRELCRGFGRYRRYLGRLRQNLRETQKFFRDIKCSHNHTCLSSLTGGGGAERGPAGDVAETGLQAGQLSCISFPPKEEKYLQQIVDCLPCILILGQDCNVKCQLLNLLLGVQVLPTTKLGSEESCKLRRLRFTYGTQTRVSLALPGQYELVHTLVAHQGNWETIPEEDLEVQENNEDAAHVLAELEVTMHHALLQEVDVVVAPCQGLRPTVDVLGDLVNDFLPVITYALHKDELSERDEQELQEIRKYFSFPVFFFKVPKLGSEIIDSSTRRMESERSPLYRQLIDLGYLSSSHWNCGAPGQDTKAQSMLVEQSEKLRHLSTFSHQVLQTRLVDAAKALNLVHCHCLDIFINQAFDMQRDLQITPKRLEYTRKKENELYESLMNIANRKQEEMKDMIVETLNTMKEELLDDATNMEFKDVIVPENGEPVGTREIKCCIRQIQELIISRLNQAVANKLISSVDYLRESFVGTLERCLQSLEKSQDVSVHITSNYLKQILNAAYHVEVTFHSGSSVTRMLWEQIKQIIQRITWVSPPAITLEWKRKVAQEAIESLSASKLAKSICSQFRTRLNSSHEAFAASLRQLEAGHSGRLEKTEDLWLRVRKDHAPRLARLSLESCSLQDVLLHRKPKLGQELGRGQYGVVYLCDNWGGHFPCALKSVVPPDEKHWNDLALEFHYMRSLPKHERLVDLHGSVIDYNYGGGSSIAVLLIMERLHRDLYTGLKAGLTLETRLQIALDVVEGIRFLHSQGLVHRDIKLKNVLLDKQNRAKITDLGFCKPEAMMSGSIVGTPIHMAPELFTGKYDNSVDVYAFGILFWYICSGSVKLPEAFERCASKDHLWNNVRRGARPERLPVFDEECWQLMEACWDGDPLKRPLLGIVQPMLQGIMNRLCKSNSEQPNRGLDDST
T20 sequence (Q00532 whole entry): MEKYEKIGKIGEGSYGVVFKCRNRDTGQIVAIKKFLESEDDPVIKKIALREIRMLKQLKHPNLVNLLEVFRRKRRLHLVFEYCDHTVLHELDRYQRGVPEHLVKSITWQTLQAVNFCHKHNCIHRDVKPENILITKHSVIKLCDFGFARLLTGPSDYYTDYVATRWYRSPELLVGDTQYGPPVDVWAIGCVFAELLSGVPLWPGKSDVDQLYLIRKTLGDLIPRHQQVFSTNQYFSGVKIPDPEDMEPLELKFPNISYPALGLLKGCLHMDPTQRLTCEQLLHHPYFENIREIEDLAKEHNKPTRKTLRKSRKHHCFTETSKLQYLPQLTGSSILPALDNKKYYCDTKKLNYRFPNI
T7 sequence (Q9NWZ3 whole entry): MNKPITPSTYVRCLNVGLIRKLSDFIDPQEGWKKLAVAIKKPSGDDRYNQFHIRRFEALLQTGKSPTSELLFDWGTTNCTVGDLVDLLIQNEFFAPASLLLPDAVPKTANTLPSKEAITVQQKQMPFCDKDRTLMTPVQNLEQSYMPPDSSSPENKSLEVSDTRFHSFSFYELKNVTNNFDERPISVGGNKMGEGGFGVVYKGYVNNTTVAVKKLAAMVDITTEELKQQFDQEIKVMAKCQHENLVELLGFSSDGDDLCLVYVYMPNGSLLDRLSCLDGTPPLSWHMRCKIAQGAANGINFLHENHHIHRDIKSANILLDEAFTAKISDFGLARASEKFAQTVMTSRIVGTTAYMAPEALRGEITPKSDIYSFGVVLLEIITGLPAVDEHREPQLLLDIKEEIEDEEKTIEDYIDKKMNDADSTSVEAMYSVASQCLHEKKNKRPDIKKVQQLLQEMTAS
T8 sequence (P51957 whole entry): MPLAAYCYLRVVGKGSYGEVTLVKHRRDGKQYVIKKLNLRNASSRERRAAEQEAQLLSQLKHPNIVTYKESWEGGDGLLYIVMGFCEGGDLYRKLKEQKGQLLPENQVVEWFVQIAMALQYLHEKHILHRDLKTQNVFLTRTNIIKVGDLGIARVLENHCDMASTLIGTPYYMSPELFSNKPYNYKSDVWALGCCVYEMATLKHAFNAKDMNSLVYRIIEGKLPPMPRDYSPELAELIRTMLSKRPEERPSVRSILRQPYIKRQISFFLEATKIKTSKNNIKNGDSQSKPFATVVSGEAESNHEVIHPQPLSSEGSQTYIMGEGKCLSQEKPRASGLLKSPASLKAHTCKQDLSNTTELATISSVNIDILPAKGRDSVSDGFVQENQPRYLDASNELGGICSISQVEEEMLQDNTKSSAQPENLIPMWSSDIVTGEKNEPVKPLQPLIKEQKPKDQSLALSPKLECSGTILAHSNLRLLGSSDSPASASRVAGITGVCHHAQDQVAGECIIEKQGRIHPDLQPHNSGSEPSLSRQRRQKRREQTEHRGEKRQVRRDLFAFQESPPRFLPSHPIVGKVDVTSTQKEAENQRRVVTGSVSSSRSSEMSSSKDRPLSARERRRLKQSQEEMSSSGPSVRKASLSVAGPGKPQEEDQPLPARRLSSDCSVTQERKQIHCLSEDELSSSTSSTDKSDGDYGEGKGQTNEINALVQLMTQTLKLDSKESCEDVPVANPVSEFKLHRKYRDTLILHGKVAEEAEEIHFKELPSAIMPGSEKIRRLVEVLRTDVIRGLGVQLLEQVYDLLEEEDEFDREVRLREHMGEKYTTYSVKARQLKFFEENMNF
T2 sequence (P48729 whole entry): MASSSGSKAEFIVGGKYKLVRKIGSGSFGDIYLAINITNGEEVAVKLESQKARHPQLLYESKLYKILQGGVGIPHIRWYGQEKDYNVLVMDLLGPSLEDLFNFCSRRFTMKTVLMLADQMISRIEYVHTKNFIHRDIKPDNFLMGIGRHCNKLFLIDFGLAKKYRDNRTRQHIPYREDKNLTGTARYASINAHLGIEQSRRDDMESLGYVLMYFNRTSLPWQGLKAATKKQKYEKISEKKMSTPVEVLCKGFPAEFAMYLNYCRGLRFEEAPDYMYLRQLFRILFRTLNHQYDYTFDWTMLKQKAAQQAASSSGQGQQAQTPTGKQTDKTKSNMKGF
T18 sequence (Q9BQI3 whole entry): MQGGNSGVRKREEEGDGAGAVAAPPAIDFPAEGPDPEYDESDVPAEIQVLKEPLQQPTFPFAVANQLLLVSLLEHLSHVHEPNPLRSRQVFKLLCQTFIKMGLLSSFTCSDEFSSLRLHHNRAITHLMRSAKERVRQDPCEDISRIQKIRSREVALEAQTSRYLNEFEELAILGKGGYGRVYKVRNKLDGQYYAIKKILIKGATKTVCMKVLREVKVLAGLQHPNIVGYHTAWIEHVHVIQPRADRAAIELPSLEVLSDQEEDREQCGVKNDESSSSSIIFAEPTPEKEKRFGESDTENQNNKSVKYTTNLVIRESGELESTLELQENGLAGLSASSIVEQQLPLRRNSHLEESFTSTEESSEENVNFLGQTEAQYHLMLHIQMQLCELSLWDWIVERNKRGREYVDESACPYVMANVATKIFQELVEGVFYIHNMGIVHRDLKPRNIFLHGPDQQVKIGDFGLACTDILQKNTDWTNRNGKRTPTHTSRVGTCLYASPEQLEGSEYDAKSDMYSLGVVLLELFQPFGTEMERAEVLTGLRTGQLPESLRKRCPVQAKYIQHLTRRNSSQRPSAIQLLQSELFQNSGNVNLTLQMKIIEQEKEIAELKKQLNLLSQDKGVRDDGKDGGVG
T22 sequence (Q13163 whole entry): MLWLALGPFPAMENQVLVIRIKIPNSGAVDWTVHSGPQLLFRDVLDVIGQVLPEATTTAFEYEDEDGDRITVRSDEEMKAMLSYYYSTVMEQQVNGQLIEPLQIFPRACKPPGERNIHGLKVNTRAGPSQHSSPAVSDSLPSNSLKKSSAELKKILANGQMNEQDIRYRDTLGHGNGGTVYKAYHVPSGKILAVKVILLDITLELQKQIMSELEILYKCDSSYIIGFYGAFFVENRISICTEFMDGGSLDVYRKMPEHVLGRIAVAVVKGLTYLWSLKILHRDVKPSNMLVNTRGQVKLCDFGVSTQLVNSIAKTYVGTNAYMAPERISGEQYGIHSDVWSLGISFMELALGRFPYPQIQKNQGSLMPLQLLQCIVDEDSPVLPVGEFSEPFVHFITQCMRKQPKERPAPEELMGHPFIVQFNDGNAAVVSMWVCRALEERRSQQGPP
T13 sequence (P61075 whole entry): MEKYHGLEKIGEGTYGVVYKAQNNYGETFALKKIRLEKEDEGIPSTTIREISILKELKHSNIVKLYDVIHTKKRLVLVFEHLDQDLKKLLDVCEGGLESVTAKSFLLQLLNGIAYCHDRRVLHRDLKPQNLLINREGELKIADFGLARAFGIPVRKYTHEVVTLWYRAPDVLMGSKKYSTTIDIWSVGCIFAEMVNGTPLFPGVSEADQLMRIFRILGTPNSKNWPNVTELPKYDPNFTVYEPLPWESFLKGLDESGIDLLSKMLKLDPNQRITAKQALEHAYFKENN
T4 sequence (Q8WU08 whole entry): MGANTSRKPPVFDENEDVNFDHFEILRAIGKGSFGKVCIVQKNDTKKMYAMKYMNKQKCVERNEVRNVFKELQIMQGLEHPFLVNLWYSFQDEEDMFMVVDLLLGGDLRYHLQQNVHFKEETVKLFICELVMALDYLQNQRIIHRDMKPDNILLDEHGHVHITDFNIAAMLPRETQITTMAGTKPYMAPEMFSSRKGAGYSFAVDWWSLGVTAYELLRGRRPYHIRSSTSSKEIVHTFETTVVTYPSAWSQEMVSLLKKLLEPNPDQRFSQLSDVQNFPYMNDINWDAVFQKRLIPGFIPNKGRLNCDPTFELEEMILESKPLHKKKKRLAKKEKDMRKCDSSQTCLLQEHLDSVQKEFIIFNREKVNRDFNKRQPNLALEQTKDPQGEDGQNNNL

With `CCN1CCN(Cc2ccc(NC(=O)c3ccc(C)c(C#Cc4cccnc4)c3)cc2C(F)(F)F)CC1` [XMD15-44] the remaining binding at 10 µM (KinomeScan kinase panel [1]) was > 30%, the remaining binding at 10 µM (KinomeScan kinase panel [2]) was > 30% and the “score (%)” value (KinomeScan kinase panel [3]) was “nb (Hits values higher than 30% were considered negative (no binding: nb))”. It also gave a remaining binding at 10 µM (KinomeScan kinase panel [4]) of 81%, a remaining binding at 10 µM (KinomeScan kinase panel [5]) of 72% and a remaining binding at 10 µM (KinomeScan kinase panel [6]) of 11%. The “score (%)” value (KinomeScan kinase panel [7]) was “nb (Hits values higher than 30% were considered negative (no binding: nb))”, the remaining binding at 10 µM (KinomeScan kinase panel [8]) was 6.4% and the remaining binding at 10 µM (KinomeScan kinase panel [9]) was 49%. The remaining binding at 10 µM (KinomeScan kinase panel [10]) was 6.2%, the “score (%)” value (KinomeScan kinase panel [11]) was 11% and the remaining binding at 10 µM (KinomeScan kinase panel [12]) was 0.15%. For the same compound, the remaining binding at 10 µM (KinomeScan kinase panel [13]) was 89%, the remaining binding at 10 µM (KinomeScan kinase panel [14]) was 42% and the remaining binding at 10 µM (KinomeScan kinase panel [15]) was > 30%. The remaining binding at 10 µM (KinomeScan kinase panel [16]) was 6%, the remaining binding at 10 µM (KinomeScan kinase panel [17]) was 3.4% and the remaining binding at 10 µM (KinomeScan kinase panel [18]) was > 30%. For the same compound, the remaining binding at 10 µM (KinomeScan kinase panel [19]) was 34%, the remaining binding at 10 µM (KinomeScan kinase panel [20]) was > 30% and the “score (%)” value (KinomeScan kinase panel [21]) was 6.5%. For the same compound, the remaining binding at 10 µM (KinomeScan kinase panel [22]) was 0.4%, the remaining binding at 10 µM (KinomeScan kinase panel [23]) was 7.5% and the remaining binding at 10 µM (KinomeScan kinase panel [24]) was 4.2%. The remaining binding at 10 µM (KinomeScan kinase panel [25]) was 9.1%, the remaining binding at 10 µM (KinomeScan kinase panel [26]) was 100% and the remaining binding at 10 µM (KinomeScan kinase panel [27]) was 27%. It also gave a remaining binding at 10 µM (KinomeScan kinase panel [28]) of 95%, a remaining binding at 10 µM (KinomeScan kinase panel [29]) of 87% and a remaining binding at 10 µM (KinomeScan kinase panel [30]) of 53%. The remaining binding at 10 µM (KinomeScan kinase panel [31]) was 0.05%, the remaining binding at 10 µM (KinomeScan kinase panel [32]) was 27% and the remaining binding at 10 µM (KinomeScan kinase panel [33]; CDK4-cyclinD1, 10 µM) was 21%. For the same compound, the remaining binding at 10 µM (KinomeScan kinase panel [33]; CDK4-cyclinD3, 10 µM) was > 30%.
